Results: patent publication US7906522B2, “2-aminoquinazoline derivatives” (Kyowa Hakko Kirin Co., Ltd, priority 2005, dated 2011)

Biological target: T1, Activated human p38α (Homo sapiens, UniProt Q16539)
T1 construct: purchased Upstate Biotechnology Inc. 14-251
Assay: p38MAP kinase inhibition test
Type: biochemical
Settings: at a concentration of 1 μmol/L; substrate myelin basic protein, ATP 20 μmol/L, [γ-32P]ATP; read-out: enzyme inhibitory activity
Procedure, shortened: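 Radiometric kinase assay with myelin basic protein (20 μg/assay) as substrate, 20 μmol/L ATP plus [γ-32P]ATP, MOPS pH 7.2 with MgCl2 18.75 mmol/L. Reaction run 15 min at 30° C., stopped with phosphoric acid; 32P-MBP captured on phosphocellulose and counted by scintillation.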

T1 sequence (Q16539 whole entry): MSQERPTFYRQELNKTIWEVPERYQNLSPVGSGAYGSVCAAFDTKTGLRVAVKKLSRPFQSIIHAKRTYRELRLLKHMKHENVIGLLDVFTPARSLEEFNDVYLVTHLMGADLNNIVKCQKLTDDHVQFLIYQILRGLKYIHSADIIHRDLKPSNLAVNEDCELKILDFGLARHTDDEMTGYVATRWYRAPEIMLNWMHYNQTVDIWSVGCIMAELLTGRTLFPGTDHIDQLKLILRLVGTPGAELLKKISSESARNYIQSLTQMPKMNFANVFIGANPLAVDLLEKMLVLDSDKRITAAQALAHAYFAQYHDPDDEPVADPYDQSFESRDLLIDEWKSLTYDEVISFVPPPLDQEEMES

| inhibition at 1 µM [%] | Compound |
| --- | --- |
| ≥ 50 | COc1cc2nc(NC(C)C)ncc2cc1-c1cccc(NC(=O)c2ccccc2C(F)(F)F)c1 [Compound 217, 2-Isopropylamino-7-methoxy-6-{3-[(2-trifluoromethylphenyl)carbonylamino]phenyl}quinazoline] |
| ≥ 50 | COc1cc2nc(NC(C)C)ncc2cc1-c1cccc(NC(=O)c2cccc(F)c2)c1 [Compound 219, 6-{3-[(3-Fluorophenyl)carbonylamino]phenyl}-2-isopropylamino-7-methoxyquinazoline] |
| ≥ 50 | COc1cc2nc(NC(C)C)ncc2cc1-c1cccc(NC(=O)C2CC2)c1 [Compound 220, 6-[3-(Cyclopropylcarbonylamino)phenyl]-2-isopropylamino-7-methoxyquinazoline] |
| ≥ 50 | COc1cc2nc(NC(C)C)ncc2cc1-c1cccc(NC(=O)c2cccnc2)c1 [Compound 221, 2-Isopropylamino-7-methoxy-6-{3-[(3-pyridyl)carbonylamino]phenyl}quinazoline] |
| ≥ 50 | COc1cc2nc(NC(C)C)ncc2cc1-c1cccc(NC(=O)C2CCC2)c1 [Compound 222, 6-[3-(Cyclobutylcarbonylamino)phenyl]-2-isopropylamino-7-methoxyquinazoline] |
| ≥ 50 | COc1cc2nc(NC(C)C)ncc2cc1-c1cc([N+](=O)[O-])ccc1CO [Compound 223, 6-(2-Hydroxymethyl-5-nitrophenyl)-2-isopropylamino-7-methoxyquinazoline] |
| ≥ 50 | COc1cc2nc(NC(C)C)ncc2cc1-c1cc(N)ccc1CO [Compound 224, 6-[5-Amino-2-(hydroxymethyl)phenyl]-2-isopropylamino-7-methoxyquinazoline] |
| ≥ 50 | COc1cc2nc(NC(C)C)ncc2cc1-c1cc(NC(C)=O)ccc1CO [Compound 225, 6-[5-Acetylamino-2-(hydroxymethyl)phenyl]-2-isopropylamino-7-methoxyquinazoline] |
| ≥ 50 | COc1cc2nc(NC(C)C)ncc2cc1-c1cc(NC(C)=O)ccc1C#N [Compound 227, 6-(5-Acetylamino-2-cyanophenyl)-2-isopropylamino-7-methoxyquinazoline] |
| ≥ 50 | COc1cc2nc(NC(C)C)ncc2cc1-c1cc(NC(=O)c2ccc[nH]2)ccc1CO [Compound 228, 6-{2-Hydroxymethyl-5-[(1H-pyrrol-2-yl)carbonylamino]phenyl}-2-isopropylamino-7-methoxyquinazoline] |
| ≥ 50 | COc1cc2nc(NC(C)C)ncc2cc1-c1cc(N)ccc1C [Compound 229, 6-(5-Amino-2-methylphenyl)-2-isopropylamino-7-methoxyquinazoline] |
| ≥ 50 | COc1cc2nc(NC(C)C)ncc2cc1-c1cc(NC(C)=O)ccc1C [Compound 230, 6-(5-Acetylamino-2-methylphenyl)-2-isopropylamino-7-methoxyquinazoline] |
| ≥ 50 | COc1cc2nc(NC(C)C)ncc2cc1-c1cc(NC(=O)c2ccnc(N3CCOCC3)c2)ccc1C [Compound 231, 2-Isopropylamino-7-methoxy-6-{2-methyl-5-[(2-morpholinopyridin-4-yl)carbonylamino]phenyl}quinazoline] |
| ≥ 50 | COc1cc2nc(NC(C)C)ncc2cc1-c1cc(NC(=O)c2ccc[nH]2)ccc1C [Compound 232, 2-Isopropylamino-7-methoxy-6-{2-methyl-5-[(1H-pyrrol-2-yl)carbonylamino]phenyl}quinazoline] |
| ≥ 50 | COc1cc2nc(NC(C)C)ncc2cc1-c1cc(NC(C)=O)ccc1F [Compound 233, 6-(5-Acetylamino-2-fluorophenyl)-2-isopropylamino-7-methoxyquinazoline] |
| ≥ 50 | COc1ccc(NC(C)=O)cc1-c1cc2cnc(NC(C)C)nc2cc1OC [Compound 234, 6-(5-Acetylamino-2-methoxyphenyl)-2-isopropylamino-7-methoxyquinazoline] |
| ≥ 50 | COc1cc2nc(NC3CCN(S(C)(=O)=O)CC3)ncc2cc1-c1ccccc1C=O [Compound 237, 6-(2-Formylphenyl)-7-methoxy-2-[1-(methylsulfonyl)piperidin-4-ylamino]quinazoline] |
| ≥ 50 | COc1cc2nc(NC3CCN(S(C)(=O)=O)CC3)ncc2cc1-c1cccc(NC(C)=O)c1 [Compound 238, 6-(3-Acetylaminophenyl)-7-methoxy-2-[1-(methylsulfonyl)piperidin-4-ylamino]quinazoline] |
| ≥ 50 | COc1cc2nc(NC3CCN(S(C)(=O)=O)CC3)ncc2cc1-c1ccccc1NC(C)=O [Compound 239, 6-(2-Acetylaminophenyl)-7-methoxy-2-[1-(methylsulfonyl)piperidin-4-ylamino]quinazoline] |
| ≥ 50 | COc1cc2nc(NC3CCN(S(C)(=O)=O)CC3)ncc2cc1-c1cccc(O)c1 [Compound 240, 6-(3-Hydroxyphenyl)-7-methoxy-2-[1-(methylsulfonyl)piperidin-4-ylamino]quinazoline] |

| inhibition at 1 µM [%] | Compound |
| --- | --- |
| ≥ 50 | COc1cc2nc(NC3CCN(S(C)(=O)=O)CC3)ncc2cc1-c1ccccc1O [Compound 241, 6-(2-Hydroxyphenyl)-7-methoxy-2-[1-(methylsulfonyl)piperidin-4-ylamino]quinazoline] |
| ≥ 50 | COc1cc2nc(NC3CCN(S(C)(=O)=O)CC3)ncc2cc1-c1ccccc1C(=O)O [Compound 242, 6-(2-Carboxyphenyl)-7-methoxy-2-[1-(methylsulfonyl)piperidin-4-ylamino]quinazoline] |
| ≥ 50 | COc1cc2nc(NC3CCOCC3)ncc2cc1-c1cccc(NC(C)=O)c1 [Compound 243, 6-(3-Acetylaminophenyl)-7-methoxy-2-(4-tetrahydropyranylamino)quinazoline] |
| ≥ 50 | CC(C)Nc1ncc2cc(-c3cccc(O)c3)c(O)cc2n1 [Compound 244, 7-Hydroxy-6-(3-hydroxyphenyl)-2-(isopropylamino)quinazoline] |
| ≥ 50 | Cc1ccccc1-c1cc2cnc(NC(C)C)nc2cc1O [Compound 245, 7-Hydroxy-2-isopropylamino-6-(2-methylphenyl)quinazoline] |
| ≥ 50 | COc1cc2nc(N)ncc2cc1-c1cc(NC(C)=O)ccc1C [Compound 249, 6-(5-Acetylamino-2-methylphenyl)-2-amino-7-methoxyquinazoline] |
| ≥ 50 | CNc1ncc2cc(-c3cc(NC(C)=O)ccc3C)c(OC)cc2n1 [Compound 250, 6-(5-Acetylamino-2-methylphenyl)-7-methoxy-2-(methylamino)quinazoline] |
| ≥ 50 | CNc1ncc2cc(-c3cc(NC(=O)c4ccc[nH]4)ccc3C)c(OC)cc2n1 [Compound 251, 7-Methoxy-2-methylamino-6-{2-methyl-5-[(1H-pyrrol-2-yl)carbonylamino]phenyl}quinazoline] |
| ≥ 50 | COc1cc2nc(NC(C)C)ncc2cc1-c1cc(NC(=O)c2ccc[nH]2)ccc1O [Compound 252, 6-{2-Hydroxy-5-[(1H-pyrrol-2-yl)carbonylamino]phenyl}-2-isopropylamino-7-methoxyquinazoline] |
| ≥ 50 | Cc1ccc(NC(=O)c2ccc[nH]2)cc1-c1ccc2nc(NC(C)C)ncc2c1 [Compound 253, 2-Isopropylamino-6-{2-methyl-5-[(1H-pyrrol-2-yl)carbonylamino]phenyl}quinazoline] |
| ≥ 50 | CC(=O)Nc1ccc(C)c(-c2ccc3nc(NC(C)C)ncc3c2)c1 [Compound 254, 6-(5-Acetylamino-2-methylphenyl)-2-(isopropylamino)quinazoline] |
| ≥ 50 | CC(C)Nc1ncc2cc(-c3cc(NC(=O)c4ccc[nH]4)ccc3CO)ccc2n1 [Compound 255, 6-{2-Hydroxymethyl-5-[(1H-pyrrol-2-yl)carbonylamino]phenyl}-2-(isopropylamino)quinazoline] |
| ≥ 50 | Cc1ccc(NC(=O)c2ccnc(N3CCOCC3)c2)cc1-c1ccc2nc(NC(C)C)ncc2c1 [Compound 256, 2-Isopropylamino-6-{2-methyl-5-[(2-morpholinopyridin-4-yl)carbonylamino]phenyl}quinazoline] |
| ≥ 50 | CC(C)Nc1ncc2cc(-c3cccc(NC(=O)c4ccnc(N5CCOCC5)c4)c3)ccc2n1 [Compound 257, 2-Isopropylamino-6-{3-[(2-morpholinopyridin-4-yl)carbonylamino]phenyl}quinazoline] |
| ≥ 50 | CC(C)Nc1ncc2cc(-c3cccc(NC(=O)c4ccc[nH]4)c3)ccc2n1 [Compound 258, 2-Isopropylamino-6-{3-[(1H-pyrrol-2-yl)carbonylamino]phenyl}quinazoline] |
| ≥ 50 | Cc1ccc(NC(=O)c2ccncc2)cc1-c1ccc2nc(NC(C)C)ncc2c1 [Compound 259, 2-Isopropylamino-6-{2-methyl-5-[(4-pyridyl)carbonylamino]phenyl}quinazoline] |
| ≥ 50 | Cc1ccc(NC(=O)c2cnccn2)cc1-c1ccc2nc(NC(C)C)ncc2c1 [Compound 261, 2-Isopropylamino-6-[2-methyl-5-(pyrazinylcarbonylamino)phenyl]quinazoline] |
| ≥ 50 | Cc1ccc(NC(=O)c2ccccn2)cc1-c1ccc2nc(NC(C)C)ncc2c1 [Compound 262, 2-Isopropylamino-6-{2-methyl-5-(2-pyridylcarbonylamino)phenyl}quinazoline] |
| ≥ 50 | Cc1ccc(NC(=O)c2ccc[n+]([O-])c2)cc1-c1ccc2nc(NC(C)C)ncc2c1 [Compound 263, 2-Isopropylamino-6-{2-methyl-5-[(pyridine-1-oxide-3-yl)carbonylamino]phenyl}quinazoline] |
| ≥ 50 | Cc1ccc(NC(=O)C2CC2)cc1-c1ccc2nc(NC(C)C)ncc2c1 [Compound 264, 6-(5-Cyclopropylcarbonylamino-2-methylphenyl)-2-(isopropylamino)quinazoline] |
